Data: publication PMC9305623, “Next generation GLP-1/GIP/glucagon triple agonists normalize body weight in obese mice” (Molecular Metabolism, 2022)

Experiments:
hGLP-1 Receptor = molecular target: T1, hGLP-1 Receptor (Homo sapiens, UniProt P43220); assay: Receptor activation: cAMP production by CRE-luciferase reporter in stably transfected BHK cells; type: cell-based; conditions: compared to the native ligand for the receptor
T1 construct: expressed in transfected cells; host or cells: baby hamster kidney (BHK) cells, stably transfected, with CRE-firefly luciferase reporter
T1 sequence (P43220 24-463): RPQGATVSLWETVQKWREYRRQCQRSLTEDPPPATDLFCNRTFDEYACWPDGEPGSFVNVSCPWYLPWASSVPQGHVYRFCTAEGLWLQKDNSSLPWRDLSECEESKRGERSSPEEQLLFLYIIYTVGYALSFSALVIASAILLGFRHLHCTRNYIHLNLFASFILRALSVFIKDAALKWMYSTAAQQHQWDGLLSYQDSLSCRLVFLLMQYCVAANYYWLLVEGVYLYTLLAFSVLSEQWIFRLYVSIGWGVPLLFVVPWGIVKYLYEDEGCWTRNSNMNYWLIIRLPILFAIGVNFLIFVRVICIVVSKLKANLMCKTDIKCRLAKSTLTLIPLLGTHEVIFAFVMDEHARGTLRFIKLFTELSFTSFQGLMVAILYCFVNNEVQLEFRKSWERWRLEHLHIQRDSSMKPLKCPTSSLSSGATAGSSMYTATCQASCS
Description: (§1) Cyclic AMP (cAMP) production was assessed as a proxy for receptor activation using stably transfected baby hamster kidney (BHK) cell lines expressing the DNA for one individual receptor (GLP-1R, GIPR, GcgR; human- or mouse-specific sequence) and the DNA for the firefly luciferase reporter gene linked to the cAMP response element (CRE). The cells were kept in continuous culture at 37 °C and 5% CO2 in Dulbecco's Modified Eagle Medium (DMEM) supplemented with 10% heat-inactivated fetal bovine serum (HI-FBS), 300 μg/mL hygromycin, and 500 μg/mL G418; for cell lines expressing GIPR, the G418 concentration was lowered to 400 μg/mL. Cells were plated in a 96-well poly-D-lysine-coated plate at 5,000 cells per well in growth media and incubated overnight at 37 °C with 5% CO2. After the overnight incubation, the media was removed, the plate was washed once in Dulbecco's phosphase-buffered saline (DPBS), and 50 μL of assay buffer (DMEM without phenol red, 10 mM HEPES, 1x Glutamax, 1% ovalbumin, 0.1% Pluronic F-68) was added to each well. […] Aliquots of the dilution curves were added to the cell plate in a volume of 50 μL per well resulting in final assay concentrations ranging from 1 × 10^−14 to 1 × 10^−7 M. The assay plate was incubated for 3 h at 37 °C and 5% CO2. After the incubation, the assay plate was washed once with DPBS. A 100 μL aliquot of DPBS was added to each well followed by 100 μL of steadylite plus reagent (PerkinElmer). The assay plate was covered to protect reagent from light, shaken at 250 rpm at room temperature for 30 min, and read in a microtiter plate reader. EC50 values were calculated using Prism software (GraphPad) with the nonlinear regression log(agonist) vs. response. A minimum of two replicates were measured for each sample.

hGIP Receptor = molecular target: T2, hGIP Receptor (Homo sapiens, UniProt P48546); assay: as above; type: cell-based; conditions: compared to the native ligand for the receptor
T2 construct: expressed in transfected cells; host or cells: baby hamster kidney (BHK) cells, stably transfected, with CRE-firefly luciferase reporter
T2 sequence (P48546 22-466): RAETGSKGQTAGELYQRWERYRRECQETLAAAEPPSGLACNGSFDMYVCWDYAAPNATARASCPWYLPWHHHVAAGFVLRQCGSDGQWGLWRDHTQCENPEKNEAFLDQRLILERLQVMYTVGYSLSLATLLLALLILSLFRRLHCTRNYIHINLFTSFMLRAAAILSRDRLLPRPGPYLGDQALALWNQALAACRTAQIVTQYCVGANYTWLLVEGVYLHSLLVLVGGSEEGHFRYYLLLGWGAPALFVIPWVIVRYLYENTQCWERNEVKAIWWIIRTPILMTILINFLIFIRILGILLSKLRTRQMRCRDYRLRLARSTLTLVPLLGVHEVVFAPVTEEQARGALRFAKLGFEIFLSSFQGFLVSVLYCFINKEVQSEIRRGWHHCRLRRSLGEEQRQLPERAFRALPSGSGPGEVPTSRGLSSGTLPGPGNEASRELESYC
Description: as §1

hGcg Receptor = molecular target: T3, hGcg Receptor (Homo sapiens, UniProt P47871); assay: as above; type: cell-based; conditions: compared to the native ligand for the receptor
T3 construct: expressed in transfected cells; host or cells: baby hamster kidney (BHK) cells, stably transfected, with CRE-firefly luciferase reporter
T3 sequence (P47871 26-477): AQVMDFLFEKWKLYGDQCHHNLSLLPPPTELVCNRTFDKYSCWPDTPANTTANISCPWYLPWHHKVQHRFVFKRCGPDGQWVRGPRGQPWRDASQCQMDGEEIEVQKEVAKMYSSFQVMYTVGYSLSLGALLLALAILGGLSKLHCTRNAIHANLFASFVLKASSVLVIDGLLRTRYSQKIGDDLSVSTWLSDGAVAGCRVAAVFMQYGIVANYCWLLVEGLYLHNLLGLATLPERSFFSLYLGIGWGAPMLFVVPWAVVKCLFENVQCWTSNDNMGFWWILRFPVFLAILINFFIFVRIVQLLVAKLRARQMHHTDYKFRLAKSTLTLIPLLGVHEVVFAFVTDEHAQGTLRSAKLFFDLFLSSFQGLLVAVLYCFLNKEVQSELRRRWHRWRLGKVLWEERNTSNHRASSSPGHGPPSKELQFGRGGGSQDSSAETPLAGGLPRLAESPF
Description: as §1

in vivo = assay: in vivo; parameters: species or system Göttingen minipigs; conditions: female, Göttingen, minipig, iv, 2 nmol/kg
Description: Studies were conducted in accordance with the Protection of Animals Act, the Act on Experiments on Animals, and the Standard Operating Procedures for Experiments on Animals at Novo Nordisk A/S. The experiments were performed under the supervision and approval of the Danish Government Animal Experiments Inspectorate and the Novo Nordisk Ethical Review Counsel. Female Göttingen minipigs (Ellegaard Göttingen Minipigs A/S), 7–14 months old and weighing 16–35 kg, were housed individually and fed once daily with a restricted SDS minipig diet (Special Diets Services). At least one week before the study, two permanent central venous catheters were implanted in the caudal vena cava of each animal. The animals were fasted for approximately 18 h before dosing and 4 h after dosing but had ad libitum access to water during the whole period. Test compounds dissolved to a concentration of 20–40 nmol/mL in a vehicle (pH 7.4) containing 0.025% polysorbate-20, 10 mM sodium phosphate, and 250 mM glycerol were administered via an intravenous injection through one catheter at a dose of 2 nmol/kg. Blood samples were collected in 8 mM aqueous EDTA for up to 14 days post dosing, preferably through the other catheter, then centrifuged at 4 °C and ∼2000g for 10 min. Plasma was isolated and immediately frozen until RP-HPLC/MS analysis. Individual plasma concentration–time profiles were analysed by a non-compartmental model in Phoenix WinNonLin software (Pharsight Inc.), and the resulting terminal half-lives were determined at the harmonic mean.

SMILES | hGLP-1 Receptor Relative Potency % (hGLP-1 Receptor) | hGIP Receptor Relative Potency % (hGIP Receptor) | hGcg Receptor Relative Potency % (hGcg Receptor) | Vd (in vivo) | clearance (in vivo)
CC[C@H](C)[C@H](NC(=O)[C@H](CO)NC(=O)[C@H](Cc1ccc(O)cc1)NC(=O)[C@H](CC(=O)O)NC(=O)[C@H](CO)NC(=O)[C@@H](NC(=O)[C@H](Cc1ccccc1)NC(=O)[C@@H](NC(=O)CNC(=O)[C@H](CCC(N)=O)NC(=O)C(C)(C)NC(=O)[C@@H](N)Cc1ccc(O)cc1)[C@@H](C)O)[C@@H](C)O)C(=O)N[C@@H](Cc1ccc(O)cc1)C(=O)N[C@@H](CC(C)C)C(=O)N[C@@H](CC(=O)O)C(=O)N[C@@H](CCCCNC(=O)COCCOCCNC(=O)COCCOCCNC(=O)CC[C@H](NC(=O)CCCCCCCCCCCCCCCCC(=O)O)C(=O)O)C(=O)N[C@@H](CCC(N)=O)C(=O)N[C@@H](C)C(=O)N[C@@H](C)C(=O)NC(C)(C)C(=O)N[C@@H](CCC(=O)O)C(=O)N[C@@H](Cc1ccccc1)C(=O)N[C@H](C(=O)N[C@@H](CC(N)=O)C(=O)N[C@@H](Cc1c[nH]c2ccccc12)C(=O)N[C@@H](CC(C)C)C(=O)N[C@@H](CC(C)C)C(=O)N[C@@H](C)C(=O)NCC(=O)NCC(=O)N1CCC[C@H]1C(=O)N[C@@H](CO)C(=O)N[C@@H](CO)C(=O)NCC(=O)N[C@@H](C)C(=O)N1CCC[C@H]1C(=O)N1CCC[C@H]1C(=O)N1CCC[C@H]1C(=O)N[C@@H](CO)C(N)=O)C(C)C [Compound 7] | 93% | 38% | 12% | 0.121 L/kg | 1.4 mL/h/kg
CC[C@H](C)[C@H](NC(=O)[C@H](CO)NC(=O)[C@H](Cc1ccc(O)cc1)NC(=O)[C@H](CC(=O)O)NC(=O)[C@H](CO)NC(=O)[C@@H](NC(=O)[C@H](Cc1ccccc1)NC(=O)[C@@H](NC(=O)CNC(=O)[C@H](CCC(N)=O)NC(=O)C(C)(C)NC(=O)[C@@H](N)Cc1ccc(O)cc1)[C@@H](C)O)[C@@H](C)O)C(=O)N[C@@H](Cc1ccc(O)cc1)C(=O)N[C@@H](CC(C)C)C(=O)N[C@@H](CC(=O)O)C(=O)N[C@@H](CCCCNC(=O)COCCOCCNC(=O)COCCOCCNC(=O)CC[C@H](NC(=O)CCCCCCCCCCCCCCCCCCC(=O)O)C(=O)O)C(=O)N[C@@H](CCC(N)=O)C(=O)N[C@@H](C)C(=O)N[C@@H](C)C(=O)NC(C)(C)C(=O)N[C@@H](CCC(=O)O)C(=O)N[C@@H](Cc1ccccc1)C(=O)N[C@H](C(=O)N[C@@H](CC(N)=O)C(=O)N[C@@H](Cc1c[nH]c2ccccc12)C(=O)N[C@@H](CC(C)C)C(=O)N[C@@H](CC(C)C)C(=O)N[C@@H](C)C(=O)NCC(=O)NCC(=O)N1CCC[C@H]1C(=O)N[C@@H](CO)C(=O)N[C@@H](CO)C(=O)NCC(=O)N[C@@H](C)C(=O)N1CCC[C@H]1C(=O)N1CCC[C@H]1C(=O)N1CCC[C@H]1C(=O)N[C@@H](CO)C(N)=O)C(C)C [Compound 8] | 101% | 39% | 6% | 0.154 L/kg | 1.2 mL/h/kg
